Data taken from patent publication US12037324B2, “Biarylmethyl heterocycles” (Université de Montréal, priority 2016, dated 2024).
Read-outs that look alike come from different tables or passages of the source.

How the values were obtained:
AGTR1 [1] = target: T1, AGTR1 (Homo sapiens, UniProt P30556); assay: DiscoveRx β-arrestin2 recruitment assay (enzyme complementation, Pathunter CHO-K1 AGTR1 β-arrestin cell line); assay type: cell-based; conditions: DiscoveRx β-arrestin2 recruitment; for DiscoveRx β-arrestin2 Ymax (%): maximal response
T1 construct: host or cells: Pathunter CHO-K1 AGTR1 β-arrestin cell line (CHO-K1)
T1 sequence (P30556 1-359): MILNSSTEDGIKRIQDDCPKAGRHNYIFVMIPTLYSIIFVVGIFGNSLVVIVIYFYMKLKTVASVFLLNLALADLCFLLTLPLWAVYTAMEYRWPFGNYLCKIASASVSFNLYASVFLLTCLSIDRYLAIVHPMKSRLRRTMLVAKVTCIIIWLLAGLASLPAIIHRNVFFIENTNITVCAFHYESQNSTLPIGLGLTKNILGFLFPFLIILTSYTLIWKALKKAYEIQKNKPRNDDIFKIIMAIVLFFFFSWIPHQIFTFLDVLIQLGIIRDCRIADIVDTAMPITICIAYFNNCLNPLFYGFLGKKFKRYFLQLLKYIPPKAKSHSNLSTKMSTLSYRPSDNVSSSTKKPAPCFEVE
In short: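 Chemiluminescent enzyme-complementation read-out of β-arrestin2 recruitment to AGTR1 in engineered CHO-K1 cells after 90 min compound exposure at 37° C. Values are 4-parameter logistic EC50s in agonist mode, IC50s in antagonist mode, with efficacy relative to the maximal All response.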

hAT1R [2] = target: T2, hAT1R (Homo sapiens, UniProt P30556); assay: cell-based; conditions: agonist mode; for EC50: read-out: BRET P63 EC50
T2 sequence (P30556 1-359): T1 sequence (P30556 1-359)

AGTR1 [3] = target: T1, AGTR1; assay: DiscoveRx IP1 accumulation assay (HTRF), agonist mode, Pathunter CHO-K1 AGTR1 β-arrestin cell line; assay type: cell-based; conditions: for EC50: read-out: IP-1 EC50
In short: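 Agonist mode in CHO-K1 AGTR1 β-arrestin cells plated 14-16 h before; compounds at varying concentrations for 90 min at 37° C, IP1 accumulation read by HTRF (D2-conjugate and anti-IP1 cryptate, 20 min room temperature). EC50 from 4-parameter logistic fit; activity given as percentage of maximal AII effect.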

hAT1R [4] = target: T2, hAT1R; assay: cell-based; conditions: section of the 42nd table ending at r951, example numbering restarts after the DiscoveRx section; read-out: β-arrestin2 EC50

SMILES	EC50 (AGTR1 [1])	DiscoveRx β-arrestin2 Ymax (%) (AGTR1 [1])	BRET P63 Ymax (hAT1R [2])	EC50 (hAT1R [2])	IP-1 Ymax (%) (AGTR1 [3])	EC50 (AGTR1 [3])	EC50 (hAT1R [4])
CCc1nc2c(C)cc(C)nc2n1Cc1cnc(-c2cc(-c3ccccc3)ccc2-c2nnn[nH]2)cn1 [Example 187, 3-((5-(4-(1H-tetrazol-5-yl)-[1,1′-biphenyl]-3-yl)pyrazin-2-yl)methyl)-2-ethyl-5,7-dimethyl-3H-imidazo[4,5-b]pyridine]	44.4 nM	34.0%	8.4%	168 nM	16.1%	104 nM	181 nM
CCc1nc2c(C)cc(C)nc2n1Cc1ncc(-c2cc(-c3cccc(C)c3)ccc2-c2nnn[nH]2)cn1 [Example 188, 2-ethyl-5,7-dimethyl-3-((5-(3′-methyl-4-(1H-tetrazol-5-yl)biphenyl-3-yl)pyrimidin-2-yl)methyl)-3H-imidazo[4,5-b]pyridine]	41.7 nM	53.3%	17.2%	33.1 nM	24.2%	173 nM	24.6 nM
CCc1nc2c(C)cc(C)nc2n1Cc1ncc(-c2cc(-c3ccccc3O)ccc2-c2nnn[nH]2)cn1 [Example 189]	9.2 nM	53.0%	17.5%	32.1 nM	12.7%	18.4 nM	49.2 nM
CCc1nc2c(C)cc(C)nc2n1Cc1ccc(-c2cc(-c3cccc(C)c3)ccc2-c2nnn[nH]2)nn1 [Example 191, 2-ethyl-5,7-dimethyl-3-((6-(3′-methyl-4-(1H-tetrazol-5-yl)biphenyl-3-yl)pyridazin-3-yl)methyl)-3H-imidazo[4,5-b]pyridine]	20.7 nM	53.0%	24.2%	101 nM	29.9%	118 nM	76 nM
CCc1nc2c(C)cc(C)nc2n1Cc1ccc(-c2cc(-c3ccccn3)ccc2C(=O)O)cc1 [Example 192, 4′-((2-ethyl-5,7-dimethyl-3H-imidazo[4,5-b]pyridin-3-yl)methyl)-5-(pyridin-2-yl)biphenyl-2-carboxylic acid]	94.3 nM	45.1%		> 100000 nM	11.1%	223 nM	127 nM
CCc1nc2c(C)cc(C)nc2n1Cc1ccc(-c2cc(-c3cc(C)ccn3)ccc2C(=O)O)cc1 [Example 193]	52.2 nM	60.7%	29.3%	160 nM	25.0%	132 nM	133 nM
CCc1nc2c(C)cc(C)nc2n1Cc1ccc(-c2cc(-c3cc(C)cc(C)n3)ccc2C(=O)O)cc1 [Example 194]	63.2 nM	36.6%	16.2%	278 nM	14.5%	214 nM	295 nM
CCc1nc2c(C)cc(C)nc2n1Cc1cnc(-c2cc(-c3cccc(C)c3)ccc2-c2nnn[nH]2)nc1 [Example 197, 2-ethyl-5,7-dimethyl-3-((2-(3′-methyl-4-(1H-tetrazol-5-yl)biphenyl-3-yl)pyrimidin-5-yl)methyl)-3H-imidazo[4,5-b]pyridine]	282 nM	20.2%		> 100000 nM	5.7%	493 nM	> 10000 nM
CCc1nc2c(C)cc(C)nc2n1Cc1ccc(-c2cc(-n3ncc4ccccc43)ccc2-c2nnn[nH]2)cc1 [Example 215, 3-((5′-(1H-Indazol-1-yl)-2′-(1H-tetrazol-5-yl)-[1,1′-biphenyl]-4-yl)methyl)-2-ethyl-5,7-dimethyl-3H-imidazo[4,5-b]pyridine]	5.1 nM	46.1%	22.7%	4 nM	17.3%	17.6 nM	4.1 nM
CCc1nc2c(C)cc(C)nc2n1Cc1ccc(-c2cc(-n3cc4ccccc4n3)ccc2-c2nnn[nH]2)cc1 [Example 216, 3-((5′-(2H-Indazol-2-yl)-2′-(1H-tetrazol-5-yl)-[1,1′-biphenyl]-4-yl)methyl)-2-ethyl-5,7-dimethyl-3H-imidazo[4,5-b]pyridine]	9.6 nM	33.4%	10.1%	1.8 nM	10.6%	29.1 nM	6.6 nM
CCc1nc2c(C)cc(C)nc2n1Cc1ccc(-c2cc(-n3cc(C)cn3)ccc2-c2nnn[nH]2)cc1 [Example 217, 2-ethyl-5,7-dimethyl-3-((5′-(4-methyl-1H-pyrazol-1-yl)-2′-(1H-tetrazol-5-yl)-[1,1′-biphenyl]-4-yl)methyl)-3H-imidazo[4,5-b]pyridine]	4.6 nM	70.3%	32.1%	2.7 nM	21.8%	22.5 nM	3 nM
CCc1nc2c(C)cc(C)nc2n1Cc1ccc(-c2cc(-n3ccc(C)n3)ccc2-c2nnn[nH]2)cc1 [Example 218]	45.9 nM	21.5%		> 10000 nM	4.6%	33.3 nM	> 10000 nM
CCc1nc2c(C)cc(C)nc2n1Cc1ccc(-c2cc(-n3cnc4ccccc43)ccc2-c2nnn[nH]2)cc1 [Example 222]	56.9 nM	42.7%		> 100000 nM	4.9%	187 nM	98.5 nM
CCc1cn(-c2ccc(-c3nnn[nH]3)c(-c3ccc(Cn4c(CC)nc5c(C)cc(C)nc54)cc3)c2)nn1 [Example 231]	28.7 nM	36.8%	13.8%	36.2 nM	8.4%	30.1 nM	98.8 nM
CCc1nc2c(C)cc(C)nc2n1Cc1ccc(-c2cc(-n3cc(C)nn3)ccc2-c2nnn[nH]2)cc1 [Example 232]	16.9 nM	41.5%		> 100000 nM	7.5%	60 nM	101 nM
CCc1nc2c(C)cc(C)nc2n1Cc1ccc(-c2cc(-n3nnc4ccccc43)ccc2-c2nnn[nH]2)cc1 [Example 233, 1-(4′-((2-Ethyl-5,7-dimethyl-3H-imidazo[4,5-b]pyridin-3-yl)methyl)-6-(1H-tetrazol-5-yl)-[1,1′-biphenyl]-3-yl)-1H-benzo[d][1,2,3]triazole]	10.5 nM	59.2%	17.9%	13.2 nM	10.2%	31.3 nM	9.7 nM
CCc1nc2c(C)cc(C)nc2n1Cc1ccc(-c2cc(-c3cn(CCF)nn3)ccc2-c2nnn[nH]2)cc1 [Example 239]	5.4 nM	59.1%	44.3%	16.7 nM	34.2%	30.7 nM	9 nM
CCc1nc2c(C)cc(C)nc2n1Cc1ccc(-c2cc(-c3cn(CC(C)C)nn3)ccc2-c2nnn[nH]2)cc1 [Example 240]	48.6 nM	42.0%	9.5%	60.1 nM	14.1%	122 nM	345 nM
CCCCn1cc(-c2ccc(-c3nnn[nH]3)c(-c3ccc(Cn4c(CC)nc5c(C)cc(C)nc54)cc3)c2)nn1 [Example 241]	41.5 nM	44.3%	17.5%	40.5 nM	12.8%	150 nM	50.2 nM
CCc1nc2c(C)cc(C)nc2n1Cc1ccc(-c2cc(-c3cn(C)nn3)ccc2-c2nnn[nH]2)cc1 [Example 243, 2-Ethyl-5,7-dimethyl-3-((5′-(1-methyl-1H-1,2,3-triazol-4-yl)-2′-(1H-tetrazol-5-yl)-[1,1′-biphenyl]-4-yl)methyl)-3H-imidazo[4,5-b]pyridine]	22.4 nM	37.7%	15.2%	42.1 nM	14.7%	52 nM	71.5 nM
CCc1nc2c(C)cc(C)nc2n1Cc1ccc(-c2cc(-c3ccccc3)ccc2C(=O)NS(C)(=O)=O)cc1 [Example 244]	96.5 nM	34.7%	15.3%	69.6 nM	11.0%	201 nM	111 nM
